Assay results taken from ChEMBL document CHEMBL3217570, “A class of novel AA-Trp-Trp-OBzl: synthesis, in vitro anti-proliferation, in vivo anti-tumor action, and intercalation mechanism” (Medchemcomm, 2011).
Residues, ends and D or L forms follow the SMILES beside them. *: point of attachment. OBn = c1ccc(CO*)cc1

Tests used:
[1] = test system: CCRF S-180; test: Antiproliferative activity against mouse S180 cells after 48 hrs by MTT assay; assay type: functional, cell-based; conditions: CCRF S-180, 48 h
[2] = test system: K562; test: Antiproliferative activity against human K562 cells after 48 hrs by MTT assay; assay type: functional, cell-based; conditions: K562, 48 h
[3] = test system: B16; test: Antiproliferative activity against mouse B16 cells after 48 hrs by MTT assay; assay type: functional, cell-based; conditions: B16, 48 h
[4] = test system: H22; test: Antiproliferative activity against mouse H22 cells after 48 hrs by MTT assay; assay type: functional, cell-based; conditions: H22, 48 h
[5] = test system: HepG2; test: Antiproliferative activity against human HepG2 cells after 48 hrs by MTT assay; assay type: functional, cell-based; conditions: HepG2, 48 h
[6] = test system: CCRF S-180; test: Antitumor activity against mouse S180 cells allografted in ICR mouse assessed as tumor growth inhibition at 8.9 mg/kg, ip qd for 7 days relative to control; assay type: functional; conditions: CCRF S-180, ip, 168 h, route intraperitoneal, read-out: TGI
[7] = test system: Mus musculus; test: Toxicity in mouse S180 cells allografted ICR mouse assessed as liver weight at 8.9 mg/kg, ip qd for 7 days relative to control; assay type: organism-based, CCRF S-180; parameters: dose 8.9 mg/kg, route intraperitoneal; conditions: in vivo, 168 h
[8] = test system: Mus musculus; test: Toxicity in mouse S180 cells allografted ICR mouse assessed as brain weight at 8.9 mg/kg, ip qd for 7 days relative to control; assay type: organism-based, CCRF S-180; parameters: dose 8.9 mg/kg, route intraperitoneal; conditions: in vivo, 168 h
[9] = test system: Mus musculus; test: Toxicity in mouse S180 cells allografted ICR mouse assessed as kidney weight at 8.9 mg/kg, ip qd for 7 days relative to control; assay type: organism-based, CCRF S-180; parameters: dose 8.9 mg/kg, route intraperitoneal; conditions: in vivo, 168 h
[10] = test system: Mus musculus; test: Toxicity in mouse S180 cells allografted ICR mouse assessed as spleen index at 8.9 mg/kg, ip qd for 7 days relative to control; assay type: organism-based, CCRF S-180; parameters: dose 8.9 mg/kg, route intraperitoneal; conditions: in vivo, 168 h
[11] = test system: Mus musculus; test: Toxicity in mouse S180 cells allografted ICR mouse assessed as increase of body weight at 8.9 mg/kg, ip qd for 7 days relative to control; assay type: organism-based, CCRF S-180; parameters: dose 8.9 mg/kg, route intraperitoneal; conditions: in vivo, 168 h
[12] = test system: Mus musculus; test: Neurotoxicity in ICR mouse assessed as neurotoxic behavior up to 500 mg/kg, ip after 7 days; assay type: toxicity, organism-based; parameters: dose 500 mg/kg, route intraperitoneal; conditions: in vivo, 168 h
[13] = test system: Mus musculus; test: Toxicity in ICR mouse assessed as mortality up to 500 mg/kg, ip after 7 days; assay type: organism-based; parameters: dose 500 mg/kg, route intraperitoneal; conditions: in vivo, 168 h
[14] = test system: Mus musculus; test: Toxicity in ICR mouse assessed as changes in organs up to 500 mg/kg, ip after 7 days by necropsy analysis; assay type: organism-based; parameters: dose 500 mg/kg, route intraperitoneal; conditions: in vivo, 168 h
[15] = Acute toxicity in ip dosed ICR mouse after 7 days; assay type: organism-based; conditions: in vivo

Row | Structure (SMILES) | IC50 [1] | IC50 [2] | IC50 [3] | IC50 [4] | IC50 [5] | inhibition in vivo at 8.9 mg/kg [6] | Activity [7] | Activity [8] | Activity [9] | Activity [10] | Activity [11] | Activity [12] | Activity [13] | Activity [14] | LD50 at 168 h [15]
1 | C[C@H](N)C(=O)N[C@@H](Cc1c[nH]c2ccccc12)C(=O)N[C@@H](Cc1c[nH]c2ccccc12)C(=O)OCc1ccccc1 (H-Ala-Trp-Trp-OBn) | 72.7 µM | 116 µM | 132 µM | 84.9 µM | 49.9 µM | -11.4% | Non-toxic | Non-toxic | Non-toxic | Non-toxic | Toxic | – | – | – | –
2 | N=C(N)NCCC[C@H](N)C(=O)N[C@@H](Cc1c[nH]c2ccccc12)C(=O)N[C@@H](Cc1c[nH]c2ccccc12)C(=O)OCc1ccccc1 (H-Arg-Trp-Trp-OBn) | 29.4 µM | 27.2 µM | 37.4 µM | 27.5 µM | 38.1 µM | 45.1% | Non-toxic | Non-toxic | Non-toxic | Non-toxic | Toxic | Non-toxic | Non-toxic | Non-toxic | > 500 mg/kg
3 | N[C@@H](CC(=O)O)C(=O)N[C@@H](Cc1c[nH]c2ccccc12)C(=O)N[C@@H](Cc1c[nH]c2ccccc12)C(=O)OCc1ccccc1 (H-Asp-Trp-Trp-OBn) | 164 µM | 170 µM | 157 µM | 107 µM | 122 µM | -8.85% | Non-toxic | Non-toxic | Non-toxic | Non-toxic | Toxic | – | – | – | –
4 | N[C@@H](CS)C(=O)N[C@@H](Cc1c[nH]c2ccccc12)C(=O)N[C@@H](Cc1c[nH]c2ccccc12)C(=O)OCc1ccccc1 (H-Cys-Trp-Trp-OBn) | 26.2 µM | 20.6 µM | 32.8 µM | 24.7 µM | 35 µM | 48.4% | Non-toxic | Non-toxic | Non-toxic | Non-toxic | Toxic | Non-toxic | Non-toxic | Non-toxic | > 500 mg/kg
5 | NC(=O)CC[C@H](N)C(=O)N[C@@H](Cc1c[nH]c2ccccc12)C(=O)N[C@@H](Cc1c[nH]c2ccccc12)C(=O)OCc1ccccc1 (H-Gln-Trp-Trp-OBn) | 27.6 µM | 24.6 µM | 31.8 µM | 25.1 µM | 26.2 µM | 43% | Non-toxic | Non-toxic | Non-toxic | Non-toxic | Toxic | Non-toxic | Non-toxic | Non-toxic | > 500 mg/kg
6 | N[C@@H](CCC(=O)O)C(=O)N[C@@H](Cc1c[nH]c2ccccc12)C(=O)N[C@@H](Cc1c[nH]c2ccccc12)C(=O)OCc1ccccc1 (H-Glu-Trp-Trp-OBn) | 16.6 µM | 14.3 µM | 21.4 µM | 14.7 µM | 22.3 µM | 78.8% | Non-toxic | Non-toxic | Non-toxic | Non-toxic | Toxic | Non-toxic | Non-toxic | Non-toxic | > 500 mg/kg
7 | NCC(=O)N[C@@H](Cc1c[nH]c2ccccc12)C(=O)N[C@@H](Cc1c[nH]c2ccccc12)C(=O)OCc1ccccc1 (H-Gly-Trp-Trp-OBn) | 79.9 µM | 88.6 µM | 159 µM | 51.1 µM | 58.3 µM | -6.51% | Non-toxic | Non-toxic | Non-toxic | Non-toxic | Toxic | – | – | – | –
8 | N[C@@H](Cc1cnc[nH]1)C(=O)N[C@@H](Cc1c[nH]c2ccccc12)C(=O)N[C@@H](Cc1c[nH]c2ccccc12)C(=O)OCc1ccccc1 (H-His-Trp-Trp-OBn) | 83.3 µM | 101 µM | 100 µM | 95.5 µM | 97.2 µM | 11.9% | Non-toxic | Non-toxic | Non-toxic | Non-toxic | Toxic | – | – | – | –
